Results: patent publication US11708283B2, “Metal-chelating compositions and their use in methods of removing or inhibiting barium scale” (CORNELL UNIVERSITY, priority 2018, dated 2023)

What was measured:
[1] = Thermodynamic stability constants of Sr^2+ complexes by pH-potentiometry; type: binding; details: I = 0.1M KCl; for pSr (−log [M^2+]free): [M^2+] = 10^−6M, [L] = 10^−5M, pH 7.4; for log K′Sr (conditional stability constant): pH 7.4, 25° C., calculated from protonation and stability constants
Method: Potentiometric measurements were carried out using a titrator equipped with a combination electrode and an exchange unit with an automatic burette (10 mL). The titration vessel was fitted with a removable glass cell (˜70 mL) and was thermostated at 25° C. using a circulating water bath. CO2 was excluded from the vessel prior to and during the titrations using a small positive pressure of Ar that was passed through a solution of 30 wt % KOH. Carbonate-free KOH (˜0.1 M) was prepared by dissolving KOH pellets (semiconductor grade, 99.99% trace metals basis) in freshly boiled water (≥18 MΩ-cm) and was standardized by potentiometric titration against potassium hydrogen phthalate. Hydrochloric acid (0.1 M) was standardized against freshly prepared KOH. Titration solutions were maintained at a constant ionic strength of 0.1 M using KCl (≥99.5%) and were equilibrated for 15 minutes prior to the addition of titrant. Before every titration, the electrode was calibrated in terms of hydrogen ion concentration by titrating a solution of standardized HCl (5 mM) containing supporting electrolyte (95 mM) with standardized KOH (2 mL). Data within the pH ranges of 2.5-3.2 and 10.8-11.2 were analyzed using software to obtain the standard electrode potential (E0) and slope factor. Owing to the sharp rise in pH at the titration endpoint (pH 3.2-10.8), data obtained in this region are subject to significant error and were therefore excluded from the calibration analysis. A pKw value of 13.78 was taken from the literature (Baes, C. F.; Mesmer, R. E. The Hydrolysis of Cations; Wiley: New York, 1976).
ICP standards of calcium, strontium, and barium in dilute HNO3 were employed in the titrations. The exact amount of HNO3 was determined by potentiometric titration of each metal solution (1 mL), diluted to a known volume with H2O, with standardized KOH to pH ˜7; under these conditions, no precipitation of metal hydroxide species was observed. The data were analyzed using a Gran plot (Gran, G. Analyst 1952, 77, 661-671). Stability constants were measured for the alkaline earth complexes of macropa^2− and macropaquin^2− by adding standardized KOH to a solution (20 mL) containing ligand (0.02 mmol), metal (0.02 mmol), 1 M KCl (1.9 mmol), and a portion of 0.1 M HCl sufficient to bring the total acid content (HCl+HNO3) to 0.1 mmol. The titration method employed either a 0.1 mV/min or 0.2 mV/min drift limit with a maximum wait time of 300 seconds between addition of base and measurement. […] Data points (˜30-90) obtained over the pH ranges of 2.5-10.5 (Ba-macropa), 2.8-10.5 (Sr-macropa), 4.0-10.5 (Ca-macropa), 2.7-11.3 (Ba-macropaquin), and 4.0-11.3 (Sr- and Ca-macropaquin) were included in the refinements. These pH ranges reflect the portion of the titration curves in which metal binding is occurring. Using the protonation constants measured for each ligand, the stability constants (Equations 2-4, below) were calculated from the average of at least 3 independent titrations using appropriate software. Proton concentration was admitted as a refineable parameter. Ligand (L) concentration was taken as the averaged value obtained from the refinements of ligand-only titrations. The errors given for the stability constants correspond to one standard deviation.
The alkaline earth stability constants for macroquin-SO3^4− were determined using a system in which each ligand titration was paired with a ligand-metal titration. These pairwise titrations permitted the ligand concentration for the metal-ligand titrations to be known with reasonable certainty from the refinement of the ligand-only titrations. Immediately following a titration of the free ligand with HCl, metal ion (0.013 mmol) was added and the solution was equilibrated under Ar for 15 minutes before the addition of standardized KOH. The same titration method was employed as described above for macropa^2− and macropaquin^2−. […]

[2] = Dissolution of barium sulfate suspension (GFAAS); details: for BaSO4 dissolved: 30 minutes
Method: First, a suspension of BaSO4 in pH 8 NaHCO3 was formed by combining Ba(NO3)2 (4.53 mM) with excess Na2SO4 (13.48 mM), simulating the mixing of incompatible waters that produces BaSO4 scale in petroleum operations. The resulting BaSO4 suspension was treated with ligand (5 mM), and the amount of dissolved Ba^2+ was measured by GFAAS.
More specifically. BaSO4 dissolution experiments at pH 8 were performed in NaHCO3 (1 M, pH=7.9-8.0); dissolution studies at pH 11 were performed in Na2CO3 (1 M, pH adjusted to 10.98 using concentrated HCl). […] The concentration of the DOTA stock solution was calculated from the mass of the ligand used (255.5 mg). A solution of Na2SO4 (293 mM) was prepared in water. The barium source for this experiment was an ICP standard solution of Ba(NO3)2 (72.99 mM; 10023 μg/mL) in 2% v/v HNO3.
Dissolution studies were carried out in 2 mL borosilicate vials equipped with identical magnetic stir bars (6.4×3 mm). Each BaSO4 suspension was prepared independently by mixing Ba(NO3)2 and Na2SO4 in 1 M NaHCO3 or Na2CO3 to give final concentrations of 4.53 mM (621,426 μg/L) and 13.48 mM, respectively. Dissolution was initiated by the addition of an aliquot of ligand (5 mM final concentration, 1.1 equiv with respect to Ba^2+) to each suspension. Controls (pH 8) received an aliquot of water instead of ligand. The suspensions were stirred at room temperature (22±1° C.) at a rate of 550 RPM. At time points of 5 min (pH 11 only), 10 min, 20 min, and 30 min, the suspensions were filtered through nylon syringe filters (either 0.2 μm or 0.22 μm), and the filtrates were analyzed as described below. The dissolution experiments were performed in triplicate at every time point for each ligand except DOTA, for which 6 replicates were run for 20 min and 30 min time points at pH 8.
The filtered samples were diluted 6565-fold (65×101) with water and analyzed for barium content by GFAAS using the furnace method and instrument parameters discussed earlier above. Standards containing both ligand and barium at the same concentrations employed in the dissolution studies were prepared in either NaHCO3 (pH 8) or Na2CO3 (pH 11); water was substituted for Na2SO4. […] Water was used as the diluent. Following calibration, each sample was analyzed in triplicate and averaged. After the analysis of every three samples, a single measurement of water was made to ensure that there was no carryover of barium. After every three (pH 11) or six (pH 8) samples were analyzed, an independently-prepared Ba-L standard was analyzed a maximum of two times as a quality control check. If the measurement was not within ±10% of the known concentration of barium, the instrument was re-calibrated and the data between the failed calibration check and the previous calibration check was excluded. Data from each time point were averaged and the results are reported as the percentage of barium dissolved. The errors given correspond to 1 standard deviation.

Row | log KSrH2L ([1]; pH-potentiometry, 25° C.) | log KSrHL ([1]; pH-potentiometry, 25° C.) | log KSrL ([1]; pH-potentiometry, 25° C.) | Structure (SMILES) | pSr (−log [M^2+]free) ([1]; 25° C.) | log K′Sr (conditional stability constant) [1] | BaSO4 dissolved ([2]; pH 8, RT, 5 mM ligand) | BaSO4 dissolution ([2]; pH 11, 30 min) [%] | BaSO4 solubilized ([2]; pH 8, RT, 5 mM ligand, 10 minutes) [%] | BaSO4 solubilized ([2]; pH 11, 5 min) [%]
1 | 6.920(3) | 8.34(4) | 8.62(2) | O=S(=O)(O)c1ccc(O)c2nc(CN3CCOCCOCCN(Cc4ccc5c(S(=O)(=O)O)ccc(O)c5n4)CCOCCOCC3)ccc12 [macroquin-SO3, 2,2′-((1,4,10,13-tetraoxa-7,16-diazacyclooctadecane-7,16-diyl)bis(methylene))bis(8-hydroxyquinoline-5-sulfonic acid)] | 6.70 | 5.64 |  |  |  | 
2 |  |  |  | O=C(O)CN1CCN(CC(=O)O)CCN(CC(=O)O)CCN(CC(=O)O)CC1 [DOTA, reference compound] | 9.30 | 8.35 | 40% | 75 |  | 
3 |  | 8.92(2) | 9.19(5) | O=C(O)c1cccc(CN2CCOCCOCCN(Cc3ccc4cccc(O)c4n3)CCOCCOCC2)n1 [macropaquin, 6-((16-((8-hydroxyquinolin-2-yl)methyl)-1,4,10,13-tetraoxa-7,16-diazacyclooctadecan-7-yl)methyl)picolinic acid] | 8.50 | 7.54 | 95% |  |  | 

Row | Structure (SMILES) | log KSrH2L ([1]; pH-potentiometry, 25° C.) | log KSrHL ([1]; pH-potentiometry, 25° C.) | log KSrL ([1]; pH-potentiometry, 25° C.) | pSr (−log [M^2+]free) ([1]; 25° C.) | log K′Sr (conditional stability constant) [1] | BaSO4 dissolved ([2]; pH 8, RT, 5 mM ligand) | BaSO4 dissolution ([2]; pH 11, 30 min) [%] | BaSO4 solubilized ([2]; pH 8, RT, 5 mM ligand, 10 minutes) [%] | BaSO4 solubilized ([2]; pH 11, 5 min) [%]
4 | O=C(O)c1cccc(CN2CCOCCOCCN(Cc3cccc(C(=O)O)n3)CCOCCOCC2)n1 [macropa, 6,6-((1,4,10,13-tetraoxa-7,16-diazacyclooctadecane-7,16-diyl)bis(methylene))dipicolinic acid] |  | 3.35(8) | 9.442(4) | 10.02 | 9.07 | complete dissolution |  | 78 | > 95
